Assay results taken from US12129237B2, “Substituted diaminocarboxamide and diaminocarbonitrile pyrimidines, compositions thereof, and methods of treatment therewith” (SIGNAL PHARMACEUTICALS, LLC, priority 2011, dated 2024).

Molecular target: T1, JNK1 (Homo sapiens, UniProt P45983)
T1 construct: purchased Carna Biosciences
Experiment: JNK1 biochemical assays (one or more of: time resolved fluorescence, Z'-LYTE Cascade, radioactive)
Details: tested in one or more of the JNK1 biochemical assays; read-out: Act. Level (JNK1 biochemical assay IC50 activity level)

T1 sequence (P45983 whole entry): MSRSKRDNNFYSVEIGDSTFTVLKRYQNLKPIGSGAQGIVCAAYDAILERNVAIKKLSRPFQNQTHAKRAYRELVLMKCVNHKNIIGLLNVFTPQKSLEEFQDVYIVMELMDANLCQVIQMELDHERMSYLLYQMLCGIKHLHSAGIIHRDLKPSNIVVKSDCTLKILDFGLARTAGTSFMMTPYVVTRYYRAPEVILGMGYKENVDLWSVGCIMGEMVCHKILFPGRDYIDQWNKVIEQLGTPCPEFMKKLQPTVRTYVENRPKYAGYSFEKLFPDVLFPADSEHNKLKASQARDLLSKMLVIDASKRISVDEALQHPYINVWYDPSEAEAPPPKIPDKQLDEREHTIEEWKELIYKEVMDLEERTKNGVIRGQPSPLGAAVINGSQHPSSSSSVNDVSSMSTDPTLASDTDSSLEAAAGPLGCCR

Row | SMILES | IC50 [nM]
1 | CNC(=O)[C@H]1CC[C@H](Nc2ncc(C(N)=O)c(N[C@@H]3CCC[C@H](O)C3)n2)CC1 [Example A-56, 4-((1R,3S)-3-hydroxycyclohexylamino)-2-((1r,4R)-4-(methylcarbamoyl)cyclohexylamino)pyrimidine-5-carboxamide] | < 200
2 | NC(=O)c1cnc(NC2CCOCC2)nc1N[C@@H]1CCC[C@H](O)C1 [Example A-57, 4-((1R,3S)-3-hydroxycyclohexylamino)-2-(tetrahydro-2H-pyran-4-ylamino)pyrimidine-5-carboxamide] | < 200
3 | CCO[C@H]1CC[C@H](Nc2ncc(C(N)=O)c(NC3CCC[C@H](O)C3)n2)CC1 (stereo partly drawn) [Example A-58, 2-((1r,4R)-4-ethoxycyclohexylamino)-4-((1R,3S)-3-hydroxycyclohexylamino)pyrimidine-5-carboxamide] | < 200
4 | CCO[C@H]1CC[C@H](Nc2ncc(C(N)=O)c(N[C@H]3CCC[C@@H](O)C3)n2)CC1 [Example A-59, 2-((1r,4S)-4-ethoxycyclohexylamino)-4-((1S,3R)-3-hydroxycyclohexylamino)pyrimidine-5-carboxamide] | < 200
5 | CCO[C@H]1CC[C@H](Nc2ncc(C(N)=O)c(N[C@H]3CCCOC3)n2)CC1 [Example A-60, 2-((1r,4S)-4-ethoxycyclohexylamino)-4-((S)-tetrahydro-2H-pyran-3-ylamino)pyrimidine-5-carboxamide] | < 200
6 | CCO[C@H]1CC[C@@H](Nc2ncc(C(N)=O)c(N[C@H]3CCC[C@@H]3O)n2)CC1 [Example A-62, 2-((1s,4R)-4-ethoxycyclohexylamino)-4-((1S,2S)-2-hydroxycyclopentylamino)pyrimidine-5-carboxamide] | 800 to 1000
7 | CCO[C@H]1CC[C@H](Nc2ncc(C(N)=O)c(N[C@H]3CCC[C@H]3O)n2)CC1 [Example A-63, 2-((1r,4S)-4-ethoxycyclohexylamino)-4-((1S,2R)-2-hydroxycyclopentylamino)pyrimidine-5-carboxamide] | 200 to 800
8 | CCO[C@H]1CC[C@H](Nc2ncc(C(N)=O)c(N[C@H]3CCC[C@@H]3O)n2)C1 [Example A-64, 2-((1S,3S)-3-ethoxycyclopentylamino)-4-((1S,2S)-2-hydroxycyclopentylamino)pyrimidine-5-carboxamide] | 200 to 800
9 | CO[C@H]1CC[C@H](Nc2ncc(C(N)=O)c(N[C@@H]3CCC[C@H]3O)n2)CC1 [Example A-65, 4-((1R,2R)-2-hydroxycyclopentylamino)-2-((1r,4R)-4-methoxycyclohexylamino)pyrimidine-5-carboxamide] | < 200
10 | CCO[C@H]1CC[C@H](Nc2ncc(C(N)=O)c(NC3CCC[C@H]3O)n2)CC1 (stereo partly drawn) [Example A-66, 2-((1r,4R)-4-ethoxycyclohexylamino)-4-((1R,2R)-2-hydroxycyclopentylamino)pyrimidine-5-carboxamide] | < 200
11 | CCO[C@H]1CC[C@H](Nc2ncc(C(N)=O)c(NC[C@@H](C)O)n2)CC1 [Example A-67, 2-((1r,4R)-4-ethoxycyclohexylamino)-4-((R)-2-hydroxypropylamino)pyrimidine-5-carboxamide] | < 200
12 | CC(C)CC(=O)N1CCC(Nc2ncc(C(N)=O)c(N[C@H]3C[C@@H](O)C3)n2)CC1 [Example A-68, 4-((1s,3s)-3-hydroxycyclobutylamino)-2-(1-(3-methylbutanoyl)piperidin-4-ylamino)pyrimidine-5-carboxamide] | < 200
13 | CO[C@H]1CC[C@H](Nc2ncc(C(N)=O)c(N[C@H]3CC[C@@](C)(O)CC3)n2)CC1 [Example A-69, 4-((1s,4s)-4-hydroxy-4-methylcyclohexylamino)-2-((1r,4r)-4-methoxycyclohexylamino)pyrimidine-5-carboxamide] | < 200
14 | NC(=O)c1cnc(N[C@H]2CC[C@](O)(c3ccccc3)CC2)nc1N[C@H]1CCC[C@@H]1O [Example A-70, 2-((1s,4R)-4-hydroxy-4-phenylcyclohexylamino)-4-((1S,2S)-2-hydroxycyclopentylamino)pyrimidine-5-carboxamide] | 200 to 800
15 | CCO[C@H]1CC[C@H](Nc2ncc(C(N)=O)c(NCCO)n2)CC1 [Example A-71, 2-((1r,4r)-4-ethoxycyclohexylamino)-4-(2-hydroxyethylamino)pyrimidine-5-carboxamide] | < 200
16 | CCO[C@H]1CC[C@H](Nc2ncc(C(N)=O)c(N[C@@H]3CCCOC3)n2)CC1 [Example A-72, 2-((1r,4R)-4-ethoxycyclohexylamino)-4-((R)-tetrahydro-2H-pyran-3-ylamino)pyrimidine-5-carboxamide] | < 200

More lines, now with the values ahead:

Row | IC50 [nM] | SMILES
17 | < 200 | CCO[C@H]1CCC[C@@H]1Nc1nc(N[C@H]2CC[C@H](OCC)CC2)ncc1C(N)=O [Example A-73, 2-((1r,4S)-4-ethoxycyclohexylamino)-4-((1S,2S)-2-ethoxycyclopentylamino)pyrimidine-5-carboxamide]
18 | 200 to 800 | CCO[C@H]1C[C@H](Nc2ncc(C(N)=O)c(N[C@H]3CCC[C@@H]3O)n2)C1 [Example A-74, 2-((1r,3S)-3-ethoxycyclobutylamino)-4-((1S,2S)-2-hydroxycyclopentylamino)pyrimidine-5-carboxamide]
19 | < 200 | NC(=O)c1cnc(N[C@H]2CC[C@H](OCCF)CC2)nc1N[C@H]1CCC[C@@H]1O [Example A-75, 2-((1r,4S)-4-(2-fluoroethoxy)cyclohexylamino)-4-((1S,2S)-2-hydroxycyclopentylamino)pyrimidine-5-carboxamide]
20 | 200 to 800 | CCO[C@@H]1CC[C@@H](Nc2ncc(C(N)=O)c(N[C@H]3CCC[C@@H]3O)n2)C1 [Example A-76, 2-((1R,3R)-3-ethoxycyclopentylamino)-4-((1S,2S)-2-hydroxycyclopentylamino)pyrimidine-5-carboxamide]
21 | < 200 | CCO[C@H]1CC[C@H](Nc2ncc(C(N)=O)c(N[C@H]3CCCC[C@@H]3O)n2)CC1 [Example A-77, 2-((1r,4S)-4-ethoxycyclohexylamino)-4-((1S,2S)-2-hydroxycyclohexylamino)pyrimidine-5-carboxamide]
22 | < 200 | CO[C@H]1CC[C@H](Nc2ncc(C(N)=O)c(NC3(CO)CCCC3)n2)CC1 [Example A-78, 4-(1-(hydroxymethyl)cyclopentylamino)-2-((1r,4r)-4-methoxycyclohexylamino)pyrimidine-5-carboxamide]
23 | < 200 | CC1(Nc2nc(N[C@H]3CC[C@H](O)CC3)ncc2C(N)=O)CCOCC1 [Example A-79, 2-((1r,4r)-4-hydroxycyclohexylamino)-4-(4-methyltetrahydro-2H-pyran-4-ylamino)pyrimidine-5-carboxamide]
24 | < 200 | CO[C@H]1CC[C@H](Nc2ncc(C(N)=O)c(N[C@H]3CC[C@@H](O)C3)n2)CC1 [Example A-80, 4-((1S,3R)-3-hydroxycyclopentylamino)-2-((1r,4S)-4-methoxycyclohexylamino)pyrimidine-5-carboxamide]
25 | < 200 | CO[C@H]1CC[C@@H](Nc2nc(N[C@H]3CC[C@H](O)C3)ncc2C(N)=O)CC1 [Example A-81, 2-((1S,3S)-3-hydroxycyclopentylamino)-4-((1s,4R)-4-methoxycyclohexylamino)pyrimidine-5-carboxamide]
26 | 200 to 800 | COC[C@H]1CC[C@H](Nc2ncc(C(N)=O)c(NC3CCN(C(C)=O)CC3)n2)CC1 [Example A-82, 4-(1-acetylpiperidin-4-ylamino)-2-((1r,4r)-4-(methoxymethyl)cyclohexylamino)pyrimidine-5-carboxamide]
27 | 200 to 800 | COC[C@H]1CC[C@@H](Nc2nc(NC3CCN(C(C)=O)CC3)ncc2C(N)=O)CC1 [Example A-83, 2-(1-acetylpiperidin-4-ylamino)-4-((1s,4s)-4-(methoxymethyl)cyclohexylamino)pyrimidine-5-carboxamide]
28 | 200 to 800 | COC[C@H]1CC[C@@H](Nc2nc(N[C@@H]3CCN(C(C)=O)C3)ncc2C(N)=O)CC1 [Example A-84, 2-((R)-1-acetylpyrrolidin-3-ylamino)-4-((1s,4S)-4-(methoxymethyl)cyclohexylamino)pyrimidine-5-carboxamide]
29 | 200 to 800 | COC[C@H]1CC[C@H](Nc2ncc(C(N)=O)c(N[C@H]3CCN(C(C)=O)C3)n2)CC1 [Example A-85, 4-((S)-1-acetylpyrrolidin-3-ylamino)-2-((1r,4S)-4-(methoxymethyl)cyclohexylamino)pyrimidine-5-carboxamide]
30 | 200 to 800 | CC(C)CC(=O)N1CCC(Nc2nc(N[C@@H]3CC[C@@H](O)C3)ncc2C(N)=O)CC1 [Example A-86, 2-((1R,3R)-3-hydroxycyclopentylamino)-4-(1-(3-methylbutanoyl)piperidin-4-ylamino)pyrimidine-5-carboxamide]
31 | < 200 | CC(C)CC(=O)N1CCC(Nc2ncc(C(N)=O)c(N[C@H]3CC[C@@H](O)C3)n2)CC1 [Example A-87, 4-((1S,3R)-3-hydroxycyclopentylamino)-2-(1-(3-methylbutanoyl)piperidin-4-ylamino)pyrimidine-5-carboxamide]
32 | < 200 | CC(C)CNc1nc(N[C@H]2CC[C@H](O)CC2)ncc1C(N)=O [Example A-88, 2-((1r,4r)-4-hydroxycyclohexylamino)-4-(isobutylamino)pyrimidine-5-carboxamide]
33 | < 200 | CCC(=O)N1CCC(Nc2ncc(C(N)=O)c(N[C@H]3CC[C@@H](O)CC3)n2)CC1 [Example A-89, 4-((1s,4s)-4-hydroxycyclohexylamino)-2-(1-propionylpiperidin-4-ylamino)pyrimidine-5-carboxamide]
34 | < 200 | CCC(=O)N1CCC(Nc2nc(N[C@H]3CC[C@H](O)CC3)ncc2C(N)=O)CC1 [Example A-90, 2-((1r,4r)-4-hydroxycyclohexylamino)-4-(1-propionylpiperidin-4-ylamino)pyrimidine-5-carboxamide]
35 | < 200 | CO[C@H]1CC[C@H](Nc2ncc(C(N)=O)c(N[C@H]3CCC[C@@H]3O)n2)CC1 [Example A-91, 4-((1S,2S)-2-hydroxycyclopentylamino)-2-((1r,4S)-4-methoxycyclohexylamino)pyrimidine-5-carboxamide]
36 | < 200 | COC[C@H]1CC[C@H](Nc2ncc(C(N)=O)c(N[C@H]3CCC[C@@H]3O)n2)CC1 [Example A-92, 4-((1S,2S)-2-hydroxycyclopentylamino)-2-((1r,4S)-4-(methoxymethyl)cyclohexylamino)pyrimidine-5-carboxamide]
